From patent publication US20200246316A1, “METHODS OF TREATING POST-SURGICAL PAIN WITH A THIAZOLINE ANTI-HYPERALGESIC AGENT” (CERSCI THERAPEUTICS, INC., priority 2019, published 2020)
Structures can show the parent of a compound that is named as a salt. Where two headings read alike, the source gives them in different places.

Legend:
Assay type in all cases: in vivo
[1] = Dog single oral dose MTD study; settings: for concentration at 0.5 h / concentration at 1 h / concentration at 2 h: dog, plasma, N = 2, read-out: Average Compound 1 Concentration in dog plasma
Protocol: The objective of a third single dose study in dogs was to determine the maximum tolerated dose (MTD) of Compound 1 following a single oral (gavage) dose in male and female dogs. Using a pyramiding dose schedule, dose levels of 250, 350 and 500 mg/kg were administered to 2 dogs/sex (after a washout period of at least three days, the same animals were dosed with the next dose level). The dose volume was 10 mL/kg body weight. The vehicle was 0.5% aqueous HPMC.

[2] = Elimination from plasma after intravenous administration in rats; settings: rat
[3] = Rat 28-day GLP repeat dose PO study (toxicokinetics)
Protocol: The vehicle was 0.5% HPMC. There were 15 rats/sex in the control and high dose groups (5/sex for a 14-day recovery period) while the low and mid doses consisted of 10 rats/sex. Satellite groups of rats/sex/group for toxicokinetics were included.
Rats in Group 1 (Vehicle Control) were bled once at approximately 1 hour post-dose on those days.

[4] = female, 250 mg/kg PO (Dose 1; Day 1), F
[5] = female, 350 mg/kg PO (Dose 3; Day 9), F
[6] = female, 500 mg/kg PO (Dose 2; Day 4), F
[7] = male, 250 mg/kg PO (Dose 1; Day 1), M
[8] = male, 350 mg/kg PO (Dose 3; Day 9), M
[9] = male, 500 mg/kg PO (Dose 2; Day 4), M
[10] = female, rat, in vivo, po, 50 mg/kg, Day 1, F, 50 mg/kg PO
[11] = female, rat, in vivo, po, 500 mg/kg, Day 14, F, 500 mg/kg PO
[12] = female, rat, in vivo, po, 500 mg/kg, Day 28, F, 500 mg/kg PO
[13] = female, rat, in vivo, po, 1000 mg/kg, Day 1, F, 1000 mg/kg PO
[14] = female, rat, in vivo, po, 1000 mg/kg, Day 14, F, 1000 mg/kg PO
[15] = female, rat, in vivo, po, 1000 mg/kg, Day 28, F, 1000 mg/kg PO
[16] = female, rat, in vivo, po, 2000 mg/kg, Day 1, F, 2000 mg/kg PO

CC1(C)SC(Nc2ccccc2O)=N[C@@H]1C(=O)O [Compound 1, (R)-2-(2-hydroxyphenylamino)-5,5-dimethyl-4,5-dihydrothiazole-4-carboxylic acid mono-hydrochloride]
concentration at 0.5 h [1, 4]: 28 µg/mL | concentration at 1 h [1, 4]: 54 µg/mL | concentration at 2 h [1, 4]: 46 µg/mL | concentration at 0.5 h [1, 5]: 67 µg/mL | concentration at 1 h [1, 5]: 154 µg/mL | concentration at 2 h [1, 5]: 119 µg/mL | concentration at 0.5 h [1, 6]: 87 µg/mL | concentration at 1 h [1, 6]: 136 µg/mL | concentration at 2 h [1, 6]: 124 µg/mL | concentration at 0.5 h [1, 7]: 71 µg/mL | concentration at 1 h [1, 7]: 110 µg/mL | concentration at 2 h [1, 7]: 91 µg/mL | concentration at 0.5 h [1, 8]: 134 µg/mL | concentration at 1 h [1, 8]: 220 µg/mL | concentration at 2 h [1, 8]: 153 µg/mL | concentration at 0.5 h [1, 9]: 111 µg/mL | concentration at 1 h [1, 9]: 191 µg/mL | concentration at 2 h [1, 9]: 193 µg/mL | emesis incidence ([1]; single dose 500 mg/kg): three of the four dosed animals | tolerability ([1]; single oral (gavage) dose 500 mg/kg): not tolerated | half-life [2]: ~3 h | Cmax ([3]; 28-day pivotal rat study, at some doses): over 100 μg/mL | Tmax ([3]; 28-day study, rat): ≤ 1 h | overall mean t1/2 ([3]; all sexes, days, dose levels): 4.24 h | Tmax ([3]; both sexes, rat, in vivo, po): 0.5 to 2 h | half-life ([3]; both sexes, rat, in vivo, po): 3 to 8 h | Tmax ([3]; both sexes, rat, in vivo, po, Days 1, 14 and 28, 500 to 2000 mg/kg PO, read-out: median tmax): 1 h | Tmax ([3]; both sexes, rat, in vivo, po, Days 14 and 28, all dose levels and sexes, read-out: overall median tmax): 1 h | overall mean V/F ([3]; both, rat, in vivo): 12.5 L/kg | overall mean CL/F ([3]; both, rat, in vivo, po): 35.2 mL/min/kg | AUC [3, 10]: 298 µg·h/mL | AUC(0-inf) [3, 10]: 299 µg·h/mL | CL/F ([3]; female, rat, in vivo, po, 50 mg/kg, Day 1, F, 50 mg/kg PO, read-out: CL/F (CLz/F) (converted)): 27.8 mL/min/kg | Cmax ([3]; female, rat, in vivo, po, 50 mg/kg, Day 1, F, 50 mg/kg PO, read-out: Cmax): 74.8 µg/mL | Vd/F ([3]; female, rat, in vivo, po, 50 mg/kg, Day 1, F, 50 mg/kg PO, read-out: V/F (Vz/F)): 8.1 L/kg | half-life ([3]; female, rat, in vivo, po, 50 mg/kg, Day 1, F, 50 mg/kg PO, read-out: t1/2 (converted)): 3.36 h | AUC [3, 11]: 223 µg·h/mL | AUC(0-inf) [3, 11]: 225 µg·h/mL | CL/F ([3]; female, rat, in vivo, po, 500 mg/kg, Day 14, F, 500 mg/kg PO, read-out: CL/F (CLss/F) (converted)): 37.5 mL/min/kg | Cmax ([3]; female, rat, in vivo, po, 500 mg/kg, Day 14, F, 500 mg/kg PO, read-out: Cmax): 75 µg/mL | Vd/F ([3]; female, rat, in vivo, po, 500 mg/kg, Day 14, F, 500 mg/kg PO, read-out: V/F (Vss/F)): 13.6 L/kg | half-life ([3]; female, rat, in vivo, po, 500 mg/kg, Day 14, F, 500 mg/kg PO, read-out: t1/2 (converted)): 4.2 h | Tmax ([3]; female, rat, in vivo, po, 500 mg/kg, Day 14, F, 500 mg/kg PO, read-out: tmax): 1 h | AUC [3, 12]: 297 µg·h/mL | AUC(0-inf) [3, 12]: 303 µg·h/mL | CL/F ([3]; female, rat, in vivo, po, 500 mg/kg, Day 28, F, 500 mg/kg PO, read-out: CL/F (CLss/F) (converted)): 28 mL/min/kg | Cmax ([3]; female, rat, in vivo, po, 500 mg/kg, Day 28, F, 500 mg/kg PO, read-out: Cmax): 86.4 µg/mL | Vd/F ([3]; female, rat, in vivo, po, 500 mg/kg, Day 28, F, 500 mg/kg PO, read-out: V/F (Vss/F)): 11.2 L/kg | half-life ([3]; female, rat, in vivo, po, 500 mg/kg, Day 28, F, 500 mg/kg PO, read-out: t1/2 (converted)): 4.62 h | Tmax ([3]; female, rat, in vivo, po, 500 mg/kg, Day 28, F, 500 mg/kg PO, read-out: tmax): 0.5 h | AUC [3, 13]: 788 µg·h/mL | AUC(0-inf) [3, 13]: 794 µg·h/mL | CL/F ([3]; female, rat, in vivo, po, 1000 mg/kg, Day 1, F, 1000 mg/kg PO, read-out: CL/F (CLz/F) (converted)): 21 mL/min/kg | Cmax ([3]; female, rat, in vivo, po, 1000 mg/kg, Day 1, F, 1000 mg/kg PO, read-out: Cmax): 108 µg/mL | Vd/F ([3]; female, rat, in vivo, po, 1000 mg/kg, Day 1, F, 1000 mg/kg PO, read-out: V/F (Vz/F)): 6.15 L/kg | half-life ([3]; female, rat, in vivo, po, 1000 mg/kg, Day 1, F, 1000 mg/kg PO, read-out: t1/2 (converted)): 3.39 h | AUC [3, 14]: 430 µg·h/mL | AUC(0-inf) [3, 14]: 437 µg·h/mL | CL/F ([3]; female, rat, in vivo, po, 1000 mg/kg, Day 14, F, 1000 mg/kg PO, read-out: CL/F (CLss/F) (converted)): 38.7 mL/min/kg | Cmax ([3]; female, rat, in vivo, po, 1000 mg/kg, Day 14, F, 1000 mg/kg PO, read-out: Cmax): 96.3 µg/mL | Vd/F ([3]; female, rat, in vivo, po, 1000 mg/kg, Day 14, F, 1000 mg/kg PO, read-out: V/F (Vss/F)): 14 L/kg | half-life ([3]; female, rat, in vivo, po, 1000 mg/kg, Day 14, F, 1000 mg/kg PO, read-out: t1/2 (converted)): 4.19 h | AUC [3, 15]: 736 µg·h/mL | AUC(0-inf) [3, 15]: 741 µg·h/mL | CL/F ([3]; female, rat, in vivo, po, 1000 mg/kg, Day 28, F, 1000 mg/kg PO, read-out: CL/F (CLss/F) (converted)): 22.7 mL/min/kg | Cmax ([3]; female, rat, in vivo, po, 1000 mg/kg, Day 28, F, 1000 mg/kg PO, read-out: Cmax): 128 µg/mL | Vd/F ([3]; female, rat, in vivo, po, 1000 mg/kg, Day 28, F, 1000 mg/kg PO, read-out: V/F (Vss/F)): 6.26 L/kg | half-life ([3]; female, rat, in vivo, po, 1000 mg/kg, Day 28, F, 1000 mg/kg PO, read-out: t1/2 (converted)): 3.2 h | Tmax ([3]; female, rat, in vivo, po, 1000 mg/kg, Day 28, F, 1000 mg/kg PO, read-out: tmax): 1 h | AUC [3, 16]: 1160 µg·h/mL | AUC(0-inf) [3, 16]: 1320 µg·h/mL | CL/F ([3]; female, rat, in vivo, po, 2000 mg/kg, Day 1, F, 2000 mg/kg PO, read-out: CL/F (CLz/F) (converted)): 25.2 mL/min/kg | Cmax ([3]; female, rat, in vivo, po, 2000 mg/kg, Day 1, F, 2000 mg/kg PO, read-out: Cmax): 118 µg/mL | Vd/F ([3]; female, rat, in vivo, po, 2000 mg/kg, Day 1, F, 2000 mg/kg PO, read-out: V/F (Vz/F)): 17.6 L/kg | AUC ([3]; female, rat, in vivo, po, 2000 mg/kg, Day 14, F, 2000 mg/kg PO): 942 µg·h/mL
